# Measured values published in PubChem BioAssay (NCI).
#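 Five concentrations, 48 hours, 96-well plates. Abbreviation: GI50, concentration required for 50% inhibition of growth. TGI denotes the concentration required for complete inhibition of growth.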
# Experiments:
# Assay in all cases: inhibition of tumour cell growth, NCI panel, 48 h
# NCI-H522 lung = tested on: NCI-H522 lung
# SK-MEL-28 melanoma = tested on: SK-MEL-28 melanoma
# HS 578T breast = tested on: HS 578T breast
# SR leukemia = tested on: SR leukemia
# CCRF-CEM leukemia = tested on: CCRF-CEM leukemia
# SN12C renal = tested on: SN12C renal
# LOX IMVI melanoma = tested on: LOX IMVI melanoma
# MOLT-4 leukemia = tested on: MOLT-4 leukemia
# NCI-H23 lung = tested on: NCI-H23 lung
# RXF 393 renal = tested on: RXF 393 renal
Structure (SMILES),GI50 (NCI-H522 lung) [µM],TGI (NCI-H522 lung) [µM],GI50 (SK-MEL-28 melanoma) [µM],TGI (SK-MEL-28 melanoma) [µM],GI50 (HS 578T breast) [µM],TGI (HS 578T breast) [µM],GI50 (SR leukemia) [µM],TGI (SR leukemia) [µM],GI50 (CCRF-CEM leukemia) [µM],TGI (CCRF-CEM leukemia) [µM],TGI (SN12C renal) [µM],TGI (LOX IMVI melanoma) [µM],TGI (MOLT-4 leukemia) [µM],TGI (NCI-H23 lung) [µM],GI50 (SN12C renal) [µM],GI50 (RXF 393 renal) [µM],TGI (RXF 393 renal) [µM],GI50 (LOX IMVI melanoma) [µM],GI50 (MOLT-4 leukemia) [µM],GI50 (NCI-H23 lung) [µM]
Nc1ccc(/C=N/Nc2ccnc3c(N)cccc23)c2cccnc12,1.84,3.62,1.87,3.51,2.04,4.62,0.0336,0.153,0.316,2.31,,,,,,,,,,
N#CCCN(c1ccc(-c2nnc(NC(=O)CNNC(=O)CC(=O)Nc3ccccc3)s2)cc1)S(=O)(=O)c1ccccc1,,> 100,,> 100,,,,,,> 100,> 100,> 100,> 100,> 100,,,,,,
COc1ccc2c(c1)CC[C@@H]1[C@@H]2CC[C@]2(C)C(c3ccco3)=C(C=O)C[C@@H]12,21.1,> 100,15.8,> 100,23.2,60,,,1.86,4.85,95.2,23.8,38.6,69.4,23.1,0.484,27.6,6.89,7.27,12.7
Cc1cc(Cl)ccc1N=C1NC(=O)C(CC(=O)Nc2ccc(Cl)cc2Cl)S1 (centres undefined),,,,> 100,,,,,,> 100,> 100,> 100,> 100,> 100,,,,,,
CN(C)CCNC(=O)c1cccc2[nH]c(-c3ccccc3)nc12,,,,32.5,,,,,,> 100,43.7,29.7,59.6,32.6,,,33.2,,,
CC12CCC[C@@](C)(C(=O)OC3OC(CO)C(O)C(O)C3O)[C@H]1CCC13CC4CC(OC4(CO)[C@H]1O)[C@@H]23 (some centres undefined),,> 100,,> 100,,,,> 100,,> 100,> 100,,> 100,> 100,,,> 100,,,
C=C(C)[C@@H]1CC[C@]2(C)[C@H](CC[C@@H]3[C@H]4[C@H]5OC[C@@]4(CCC5(C)C)CC[C@]32C)[C@@]1(C)CCCN,,,1.83,3.36,2.1,4.61,,,2.44,> 100,3.2,0.489,7.86,3.53,1.63,1.64,3.07,0.0275,2.79,1.77
Cc1ccccc1CN1CC=c2ccccc2=N1,,,,> 100,,,,,,> 100,> 100,> 100,,> 100,,,,,,
Cc1nc(NC(=O)CCCN2C(=O)c3cccc4cccc(c34)C2=O)sc1C(=O)Nc1cc(C(=O)NCCCN(C)C)n(C)c1,> 100,> 100,> 100,> 100,> 100,> 100,> 100,> 100,,,> 100,> 100,> 100,> 100,> 100,,,> 100,> 100,> 100
CCC(C)C(NC(=O)C1CCCN1C(=O)C(NC(=O)C(C)N)C(C)C)C(N)=O (centres undefined),> 100,> 100,> 100,> 100,> 100,> 100,,,> 100,> 100,> 100,> 100,> 100,,> 100,> 100,> 100,> 100,> 100,
COc1ccc(C2=NN(C(C)=O)C(c3cn(-c4ccccc4)nc3-c3ccc(Cl)cc3)C2)cc1 (centres undefined),,,> 100,> 100,4.88,> 100,,,> 100,> 100,> 100,> 100,> 100,> 100,> 100,10.5,> 100,> 100,> 100,> 100
O=C(NO)C12C3C4C1C1C2C3C41C(=O)NO (centres undefined),,> 100,,> 100,,,,,,> 100,> 100,> 100,> 100,,,,> 100,,,
OCC12C3C4C1C1C2C3C41CO (centres undefined),,,,> 100,,,,,,> 100,> 100,> 100,> 100,> 100,,,,,,
Nc1nc2nc[nH]c2c(=O)[nH]1,,> 100,,> 100,,,,> 100,,> 100,> 100,> 100,,> 100,,,> 100,,,
COC1=CC(c2ccc[nH]2)=N/C1=C\c1[nH]c(C)c(C(=O)CCCCC(=O)Nc2ccccc2)c1C,1.32,3.46,1.63,3.2,,,0.636,3.69,0.261,1.43,4.38,2.34,2.01,4.8,1.67,1.03,2.23,1.13,0.522,1.87
NCCNC(=S)S,,16.6,,> 100,,43,,,,90.6,> 100,> 100,77.9,> 100,,,> 100,,,
COc1cc(-n2cc(-c3ccc(Cl)cc3)[nH]c2=O)cc(OC)c1OC,19.9,54,> 100,> 100,76.6,> 100,> 100,> 100,,,> 100,> 100,> 100,> 100,37.7,,,59.9,> 100,49.5
COC(=O)C1=C(CO)C2C=CC1C2 (centres undefined),,> 100,,,,,,,,> 100,> 100,> 100,> 100,> 100,,,> 100,,,
CC(C)=CC(=O)Cc1nc2cc(C)c(C)cc2[nH]c1=O,,,,> 100,,,,> 100,,> 100,> 100,> 100,> 100,> 100,,,> 100,,,
